In publication PMC11129182, “Development of Inhibitors, Probes, and PROTAC Provides a Complete Toolbox to Study PARK7 in the Living Cell” (Journal of Medicinal Chemistry, 2024):
Read-outs that look alike come from different tables or passages of the source.

Tests used:
PARK7 [1] = target: T1, PARK7 (Homo sapiens, UniProt Q99497); experiment: Hit validation and pure-compound testing in the PARK7 FP assay with JYQ-107; assay type: biochemical; conditions: for inhibition at 0.25 µM: read-out: % Inhibition 0.25 µM; for potency in FP assay compared to JYQ-88: 0.25 and 1 μM; for inhibition at 0.5 µM: read-out: % Inhibition 0.5 µM
T1 sequence (Q99497 1-189): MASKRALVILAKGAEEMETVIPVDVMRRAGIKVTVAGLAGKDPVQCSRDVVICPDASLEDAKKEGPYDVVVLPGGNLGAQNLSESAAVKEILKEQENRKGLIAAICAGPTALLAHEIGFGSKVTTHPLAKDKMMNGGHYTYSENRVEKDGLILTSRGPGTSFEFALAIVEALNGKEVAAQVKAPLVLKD

PARK7 [2] = target: T1, PARK7; experiment: Cell-based competition assay with probe JYQ-92 in HEK293T cells; conditions: 24 h; for cellular target engagement of PARK7: live HEK293T cells, 5 μM
Protocol: Samples were resolved by SDS-PAGE and analyzed by fluorescence scanning and Western blotting (Figure 2B). The target engagement of cellular PARK7 is reflected by the disappearance of the PARK7 labeling band in the fluorescence gel scan and by the loss of the shifted probe-labeled PARK7 band in the Western blot.
HEK293T cells were treated with the indicated concentrations of indicated inhibitors for indicated incubation time.
Figure S1. Assessment of the cell permeability of JYQ -88. (A) Structure of JYQ-92.
(B) Target engagement of JYQ-88 in HEK293T cells. HEK293T cells were incubated […]
with PARK7 probe JYQ-92 fo r 1 h at 37 °C. The reactions were stopped by the addition of NuPAGE™ LDS sample buffer (4x). Samples were resolved by SDS -PAGE using […]
fluorescence scanning on a Typhoon FLA 9500 (GE Healthcare Life Sciences) using […]
The disappearance of the JYQ-92-labeled band in […]
of JYQ-88 is used as a measurement of cellular PARK7 engagement with JYQ -88.
(§1) (1 picture or pasted object on this page, not shown here)

PARK7 [3] = target: T1, PARK7; experiment: biochemical; set-up: Fluorescence polarization competition: residual PARK7 labelling by JYQ-107 probe after 1 h preincubation, % inhibition; conditions: sheet Validation pure compounds
Protocol: The 15 pure compounds from the two different approaches (5 compounds from structure modification and 10 compounds from HTS) were assessed for their potency to inhibit PARK7 at 0.25 and 1 μM final concentrations using the FP assay (Figure 2A). […] Fifty four compounds showing inhibition above 90% were picked and checked at three different concentrations. Using a Labcyte Echo550 acoustic dispenser, 20, 10, and 5 nL of 1 mM compound stock solutions were transferred from the source plates into an empty 384-well plate to obtain 1, 0.5, 0.25 μM final concentrations. […] The relative loss of FP signal compared with reference controls (5 mM NEM, 100% inhibition, and DMSO, 0% inhibition) was used to calculate the remaining enzyme activity. The inhibition percentage of these 54 compounds was plotted as heatmaps using Graphpad Prism 9.0.1 software. […] Stock solutions of 0.26 μM PARK7 and 80 nM JYQ-107 were prepared. Using a Labcyte Echo550 acoustic dispenser, 10 nL of 1 mM DMSO stock solutions of the library compounds was transferred from the source plates into the empty 1536-well screening plates to obtain a 1.25 μM final compound concentration. Next, PARK7 (6 μL, final concentration 0.2 μM) was dispensed using a Biotek MultiflowFX [compound left out] dispenser and incubated for 2 h, followed by dispensing the probe JYQ-107 (2 μL, final concentration 20 nM). […] The percentage inhibition of each compound was calculated from the FP values, normalized to the positive (5 mM N-ethylmaleimide, 100% inhibition) and negative (DMSO, 0% inhibition) controls.

PARK7 [4] = target: T1, PARK7; experiment: High-throughput screen of the crude compound library, PARK7 fluorescence polarization (FP) assay with FP reagent JYQ-107; assay type: biochemical; conditions: for inhibition at 1.25 µM: read-out: HTS FP assay %Inhibition (1.25 µM)
DUBs = experiment: Activity-based DUB profiling with Rho-Ub-PA probe in HEK293T cells; assay type: cell-based, human; conditions: 5 µM, 24 h
Protocol: Figure S3. Activity evaluation of inhibitors against DUBs in HEK293T cells. (A ) Inhibitors from structure modification. (B) Inhibitors from HTS. HEK293T cells were […]
incubation with Rho- Ub-PA probe for 30 min at 37 °C. Samples were resolved by SDS - […]
and visualized by fluorescence scanning on a Typhoon FLA 9500 (GE Healthcare Life […]
Nitrocellulose membranes and Western blot analysis.
as §1

[5] = 1.25 µM, crude compound library

Row | Compound | inhibition at 0.25 µM (PARK7 [1]; pure compounds) [%] | inhibition at 1 µM (PARK7 [1]; pure compounds) [%] | potency in FP assay compared to JYQ-88 (PARK7 [1]; pure compounds) | cellular target engagement of PARK7 (PARK7 [2]) | inhibition at 0.25 µM (PARK7 [1]; crude compounds) [%] | inhibition at 0.5 µM (PARK7 [1]; crude compounds, 0.5 µM) [%] | inhibition at 1 µM (PARK7 [1]; crude compounds) [%] | inhibition of DUBs in cells (DUBs) | other results
1 | CN1CCN(CC(=O)N2CCc3nc(NC(=O)[C@@H]4CCN(C#N)C4)sc3C2)CC1 [Compound 2, (R)-1-Cyano-N-(5-(2-(4-methylpiperazin-1-yl)acetyl)-4,5,6,7-tetrahydrothiazolo[5,4-c]pyridin-2-yl)pyrrolidine-3-carboxamide] | 53.7 | 83.7 | did not improve | did not bind with PARK7 in cells | – | – | – | – | –
2 | N#CN1CC[C@@H](C(=O)Nc2nc3c(s2)CN(C(=O)c2cccc(S(=O)(=O)NCCc4ccc(S(N)(=O)=O)cc4)c2)CC3)C1 [compound 199] | – | – | – | – | – | – | – | – | inhibition at 0.25 µM (PARK7 [3]): 80.7%; inhibition at 1 µM (PARK7 [3]): 94.6%
3 | N#CN1CC[C@@H](C(=O)Nc2nc3c(s2)CN(C(=O)c2cccc(S(=O)(=O)NCC4CCCO4)c2)CC3)C1 (stereo partly drawn) [compound 55] | – | – | – | – | – | – | – | – | inhibition at 0.25 µM (PARK7 [3]): 64.7%; inhibition at 1 µM (PARK7 [3]): 93.5%
4 | N#CN1CC[C@@H](C(=O)Nc2nc3c(s2)CN(C(=O)c2cccc(O)c2)CC3)C1 [compound 3] | – | – | – | – | – | – | – | – | inhibition at 0.25 µM (PARK7 [3]): 58.4%; inhibition at 1 µM (PARK7 [3]): 90.1%
5 | N#CN1CC[C@@H](C(=O)Nc2nc3c(s2)CN(C(=O)CN2CCOCC2)CC3)C1 [Compound 1, (R)-1-Cyano-N-(5-(2-morpholinoacetyl)-4,5,6,7-tetrahydrothiazolo[5,4-c]pyridin-2-yl)pyrrolidine-3-carboxamide] | 62.8 | 87.7 | did not improve | did not bind with PARK7 in cells | – | – | – | – | –
6 | (R)-N-(5-(3-(1,2,4-Oxadiazol-3-yl)benzoyl)-4,5,6,7-tetrahydrothiazolo[5,4-c]pyridin-2-yl)-1-cyanopyrrolidine-3-carboxamide [Compound 199] | – | – | – | – | – | – | – | showed inhibition of one or more DUBs, mainly UCHL1 | HTS FP assay %Inhibition (1.25 µM) (PARK7 [4]; [5]): 95.3%; % Inhibition (PARK7 [4]; HTS of crude compound library, sheet "SMILES+%Inh HTS"): 95.3%; % Inhibition 0.25 µM (PARK7 [1]; crude compounds): 81.4%; % Inhibition 0.5 µM (PARK7 [1]; crude compounds, 0.5 µM): 91.6%; % Inhibition 1 µM (PARK7 [1]; crude compounds): 98.6%; % Inhibition 0.25 µM (PARK7 [1]; pure compounds): 80.7%; % Inhibition 1 µM (PARK7 [1]; pure compounds): 94.6%
7 | N#CN1CC[C@@H](C(=O)Nc2nc3c(s2)CN(C(=O)CN2CCNCC2)CC3)C1 [Compound 4, (R)-1-Cyano-N-(5-(2-(piperazin-1-yl)acetyl)-4,5,6,7-tetrahydrothiazolo[5,4-c]pyridin-2-yl)pyrrolidine-3-carboxamide] | 40.2 | 59.9 | lowered | did not bind with PARK7 in cells | – | – | – | – | –
8 | CC(=O)N1CCN(S(=O)(=O)c2cccc(C(=O)N3CCc4nc(NC(=O)[C@@H]5CCN(C#N)C5)sc4C3)c2)CC1 [Compound 336, (R)-N-(5-(3-((4-Acetylpiperazin-1-yl)sulfonyl)benzoyl)-4,5,6,7-tetrahydrothiazolo[5,4-c]pyridin-2-yl)-1-cyanopyrrolidine-3-carboxamide] | ~100 | 98.5 | – | – | 76.8 | 91.5 | 98.3 | did not show interference with the activity of any DUB | inhibition at 1.25 µM (PARK7 [4]; [5]): 91.8%; % Inhibition 0.25 µM (PARK7 [1]; pure compounds): 87.6%; concentration from which PARK7 is engaged (PARK7 [2]; HEK293T cells, 0.1–5 μM dilution series): 1 µM
9 | N#CN1CC[C@@H](C(=O)Nc2nc3c(s2)CN(C(=O)CC2CCNCC2)CC3)C1 [Compound 5, (R)-1-Cyano-N-(5-(2-(piperidin-4-yl)acetyl)-4,5,6,7-tetrahydrothiazolo[5,4-c]pyridin-2-yl)pyrrolidine-3-carboxamide] | 38.5 | 71 | lowered | did not bind with PARK7 in cells | – | – | – | – | –

Further lines, with some results ahead:

Row | inhibition at 0.25 µM (PARK7 [1]; pure compounds) [%] | inhibition at 1 µM (PARK7 [1]; pure compounds) [%] | potency in FP assay compared to JYQ-88 (PARK7 [1]; pure compounds) | cellular target engagement of PARK7 (PARK7 [2]) | inhibition at 0.25 µM (PARK7 [1]; crude compounds) [%] | inhibition at 0.5 µM (PARK7 [1]; crude compounds, 0.5 µM) [%] | inhibition at 1 µM (PARK7 [1]; crude compounds) [%] | Compound | inhibition of DUBs in cells (DUBs) | other results
10 | 68.3 | 92.6 | – | – | 58 | 79.8 | 95.6 | Cc1cc(C(=O)N2CCc3nc(NC(=O)[C@@H]4CCN(C#N)C4)sc3C2)ccc1Br [Compound 415, (R)-N-(5-(4-Bromo-3-methylbenzoyl)-4,5,6,7-tetrahydrothiazolo[5,4-c]pyridin-2-yl)-1-cyanopyrrolidine-3-carboxamide] | showed inhibition of one or more DUBs, mainly UCHL1 | inhibition at 1.25 µM (PARK7 [4]; 1.25 µM, crude compound library, FP reagent JYQ-107): 93.1%
11 | 67.9 | 93.1 | – | – | 64.2 | 85.7 | 98.5 | N#CN1CC[C@@H](C(=O)Nc2nc3c(s2)CN(C(=O)c2cnc(-c4cccs4)s2)CC3)C1 [Compound 108, (R)-1-Cyano-N-(5-(2-(thiophen-2-yl)thiazole-5-carbonyl)-4,5,6,7-tetrahydrothiazolo[5,4-c]pyridin-2-yl)pyrrolidine-3-carboxamide] | showed inhibition of one or more DUBs, mainly UCHL1 | inhibition at 1.25 µM (PARK7 [4]; [5]): 90.8%
12 | 84.2 | 95.6 | – | – | 68.5 | 86.9 | 97.3 | Cc1csc(-c2cccc(C(=O)N3CCc4nc(NC(=O)[C@@H]5CCN(C#N)C5)sc4C3)c2)n1 [Compound 334, (R)-1-Cyano-N-(5-(3-(4-methylthiazol-2-yl)benzoyl)-4,5,6,7-tetrahydrothiazolo[5,4-c]pyridine-2-yl)pyrrolidine-3-carboxamide] | showed inhibition of one or more DUBs, mainly UCHL1 | inhibition at 1.25 µM (PARK7 [4]; [5]): 89.4%
